target: T1, human RORγt (Ligand Binding Domain) (Homo sapiens, UniProt P51449); test: Fluorescence Polarization (FP) Assay; conditions: not given
T1 construct: purchased Crelux (Planegg, Germany) batch no PC5032-1
T1 sequence (P51449 269-508 limits assumed): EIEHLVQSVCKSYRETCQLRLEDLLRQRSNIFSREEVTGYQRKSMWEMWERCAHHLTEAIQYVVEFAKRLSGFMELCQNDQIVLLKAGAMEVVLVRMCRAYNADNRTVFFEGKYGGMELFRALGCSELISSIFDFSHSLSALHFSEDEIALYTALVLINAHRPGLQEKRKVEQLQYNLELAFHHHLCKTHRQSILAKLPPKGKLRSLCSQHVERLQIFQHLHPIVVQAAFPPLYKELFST
Method: The activity of the compounds was evaluated using a Fluorescence Polarization (FP) Assay and, in most cases, a Th17 Assay and/or RORγ Reporter assay (also referred to as Gal4 assay). The FP assay is an in vitro assay monitoring binding within the ligand binding pocket. The RORγ and the Th17 assays are both cell-based assays monitoring functional activity of the compound assayed.
The total volume was 25 μl, in a black Perkin Elmer OptiPlate. As negative control, 1 μl DMSO was used. […] The probe is a fluorescently labeled (TAMRA) RORγt ligand identified by Nuevolution with a total molecular weight of 910 g/mole as shown in Graph A in FIG. 1.

Oc1cc(CNc2ncnc(N3CCCC3c3ccc(C(F)(F)F)cc3)c2F)on1 (centres unmarked) [Example 216, 5-[[[5-fluoro-6-[2-[4-(trifluoromethyl)phenyl]pyrrolidin-1-yl]pyrimidin-4-yl]amino]methyl]isoxazol-3-ol] was tested. Which IC50 did it give?
Its IC50 is less than 10 µM.

same assay, conditions: Fluorescence Polarization (FP) Assay; values given as upper bounds of activity ranges; read-out: FP activity range

Which IC50 does the source give for O=S1(=O)CCCC1CNc1ncnc(N2CCC[C@@H]2c2ccc(C(F)(F)F)cc2)c1F (stereo partly drawn) [Example 170, N-[(1,1-dioxothiolan-2-yl)methyl]-5-fluoro-6-[(2R)-2-[4-(trifluoromethyl)phenyl]pyrrolidin-1-yl]pyrimidin-4-amine] here?
The IC50 was less than 10 µM.

With NC(=O)C1CCCN(c2ccc(CNc3ncnc(N4CCCC4c4ccc(C(F)(F)F)cc4)c3F)cc2)C1 (centres unmarked) [Example 61, 1-[4-[[[5-fluoro-6-[2-[4-(trifluoromethyl)phenyl]pyrrolidin-1-yl]pyrimidin-4-yl]amino]methyl]phenyl]piperidine-3-carboxamide] as the molecule, how does the IC50 read?
The IC50 was less than 10 µM.

For Fc1c(NCc2cccc(Cn3cncn3)c2)ncnc1N1CCCC1c1ccc(C(F)(F)F)cc1 (centres unmarked) [Example 146, 5-fluoro-N-[[3-(1,2,4-triazol-1-ylmethyl)phenyl]methyl]-6-[2-[4-(trifluoromethyl)phenyl]pyrrolidin-1-yl]pyrimidin-4-amine], which IC50 is on record?
The IC50 was less than 2 µM.

With CN(C)C(=O)c1cccc(CNc2ncnc(N3CCCC3c3ccc(C(F)(F)F)cc3)c2F)c1 (centres unmarked) [Example 145, 3-[[[5-fluoro-6-[2-[4-(trifluoromethyl)phenyl]pyrrolidin-1-yl]pyrimidin-4-yl]amino]methyl]-N,N-dimethyl-benzamide] as the molecule, how does the IC50 read?
The IC50 was less than 10 µM.

For CS(=O)(=O)NC1CCN(c2ncnc(N3CCOC[C@@H]3c3ccc(C(F)(F)F)cc3)c2F)CC1 [Example 297, N-[1-[5-fluoro-6-[(3 S)-3-[4-(trifluoromethyl)phenyl]morpholin-4-yl]pyrimidin-4-yl]-4-piperidyl]methanesulfonamide], which IC50 is on record?
Its IC50 is less than 10 µM.

NC(=O)Cc1ccc(CNc2ncnc(N3CCCC3c3ccc4ccccc4c3)c2F)cc1 (centres unmarked) [Example 312, 2-[4-[[[5-fluoro-6-[2-(2-naphthyl)pyrrolidin-1-yl]pyrimidin-4-yl]amino]methyl]phenyl] acetamide] was tested. Which IC50 did it give?
The IC50 was less than 0.5 µM.

With CC(C)(C)C[C@@H](Nc1ncnc(N2CCC[C@@H]2c2ccc(C(F)(F)F)cc2)c1F)C(=O)O [Example 325, (2R)-2-[[5-fluoro-6-[(2R)-2-[4-(trifluoromethyl)phenyl]pyrrolidin-1-yl]pyrimidin-4-yl]amino]-4,4-dimethyl-pentanoic acid] as the molecule, how does the IC50 read?
The IC50 was less than 1 µM.

How did the IC50 turn out when CC(C)(C)CC(Nc1ncnc(N2CCCC2c2ccc3ncccc3c2)c1F)C(N)=O (stereo in doubt) [Example 23, (2R)-2-[[5-fluoro-6-[2-(6-quinolyl)pyrrolidin-1-yl]pyrimidin-4-yl]amino]-4,4-dimethyl-pentanamide] was run?
Its IC50 is less than 0.5 µM.

For Fc1c(NCc2ccc(OCC3CCCO3)cc2)ncnc1N1CCCC1c1ccc(C(F)(F)F)cc1 (centres unmarked) [Example 59, 5-fluoro-N-[[4-(tetrahydrofuran-2-ylmethoxy)phenyl]methyl]-6-[2-[4-(trifluoromethyl)phenyl]pyrrolidin-1-yl]pyrimidin-4-amine], which IC50 is on record?
The IC50 was less than 10 µM.

With O=C1CCC(CNc2ncnc(N3CCCC3c3ccc(C(F)(F)F)cc3)c2F)N1 (centres unmarked) [Example 108, 5-[[[5-fluoro-6-[2-[4-(trifluoromethyl)phenyl]pyrrolidin-1-yl]pyrimidin-4-yl]amino]methyl]pyrrolidin-2-one] as the molecule, how does the IC50 read?
Its IC50 is less than 10 µM.

For [O-][n+]1cccc(CNc2ncnc(N3CCC[C@@H]3c3ccc(C(F)(F)F)cc3)c2F)c1 [Example 193, 5-fluoro-N-[(1-oxidopyridin-1-ium-3-yl)methyl]-6-[(2R)-2[4-(trifluoromethyl)phenyl]pyrrolidin-1-yl]pyrimidin-4-amine], which IC50 is on record?
The IC50 was less than 10 µM.

How did the IC50 turn out when O=S1(=O)CCC(CNc2ncnc(N3CCC[C@@H]3c3ccc(C(F)(F)F)cc3)c2F)C1 (stereo partly drawn) [Example 184, N-[(1,1-dioxothiolan-3-yl)methyl]-5-fluoro-6-[(2R)-2-[4-(trifluoromethyl)phenyl]pyrrolidin-1-yl]pyrimidin-4-amine] was run?
Its IC50 is less than 0.5 µM.

How did the IC50 turn out when CC1CC(c2ccc(C(F)(F)F)cc2)N(c2ncnc(N[C@H](Cc3ccc(F)cc3)C(N)=O)c2F)C1 (stereo partly drawn) [Example 37, (2R)-2-[[5-fluoro-6-[4-methyl-2-[4-(trifluoromethyl)phenyl]pyrrolidin-1-yl]pyrimidin-4-yl]amino]-3-(4-fluorophenyl)propanamide] was run?
Its IC50 is less than 1 µM.

OCC1CCN(c2ccc(CNc3ncnc(N4CCCC4c4ccc(C(F)(F)F)cc4)c3F)cn2)CC1 (centres unmarked) [Example 58, [1-[5-[[[5-fluoro-6-[2-[4-(trifluoromethyl)phenyl]pyrrolidin-1-yl]pyrimidin-4-yl]amino]methyl]-2-pyridyl]-4-piperidyl]methanol] was tested. Which IC50 did it give?
Its IC50 is less than 10 µM.

How did the IC50 turn out when NC(=O)Cc1ccc(CNc2ncnc(N3C[C@H](F)C[C@H]3c3ccc(C(F)(F)F)cc3)c2F)cc1 (racemic) [Example 242, 2-[4-[[[5-fluoro-6-[(2S,4R)-4-fluoro-2-[4-(trifluoromethyl)phenyl]pyrrolidin-1-yl]pyrimidin-4-yl]amino]methyl]phenyl]acetamide AND 2-[4-[[[5-fluoro-6-[(2R,4S)-4-fluoro-2-[4-(trifluoromethyl)phenyl]pyrrolidin-1-yl]pyrimidin-4-yl]amino]methyl]phenyl]acetamide] was run?
Its IC50 is less than 2 µM.

With CC(C)(C)C1OCCCC1CNc1ncnc(N2CCC[C@@H]2c2ccc(C(F)(F)F)cc2)c1F (stereo partly drawn) [Example 175, N-[(2-tert-butyltetrahydropyran-3-yl)methyl]-5-fluoro-6-[(2R)-2-[4-(trifluoromethyl)phenyl]pyrrolidin-1-yl]pyrimidin-4-amine] as the molecule, how does the IC50 read?
Its IC50 is less than 10 µM.

Which IC50 does the source give for CS(=O)(=O)c1ccc(CNc2ncnc(N3CCC[C@@H]3c3ccc(C(F)(F)F)cc3)c2F)cc1 [Example 219, 5-fluoro-N-[(4-methylsulfonylphenyl)methyl]-6-[(2R)-2-[4-(trifluoromethyl)phenyl]pyrrolidin-1-yl]pyrimidin-4-amine] here?
The IC50 was less than 10 µM.

With NC(=O)Cc1ccc(CNc2ncnc(N3CCCC3c3nc4ccccc4s3)c2F)cc1 (centres unmarked) [Example 310, 2-[4-[[[6-[2-(1,3-benzothiazol-2-yl)pyrrolidin-1-yl]-5-fluoro-pyrimidin-4-yl]amino]methyl]phenyl]acetamide] as the molecule, how does the IC50 read?
Its IC50 is less than 0.5 µM.

For CC(C)(CCS(C)(=O)=O)CNc1ncnc(N2CCOC[C@@H]2c2ccc(C(F)(F)F)cc2)c1F [Example 294, N-(2,2-dimethyl-4-methylsulfonyl-butyl)-5-fluoro-6-[(3S)-3-[4-(trifluoromethyl)phenyl]morpholin-4-yl]pyrimidin-4-amine], which IC50 is on record?
The IC50 was less than 10 µM.

CS(=O)(=O)c1ccc(Cn2ccc3c(N4CCOC[C@@H]4c4ccc(OC(F)(F)F)cc4)ncnc32)cn1 [Example 329, (3S)-4-[7-[(6-methylsulfonyl-3-pyridyl)methyl]pyrrolo[2,3-d]pyrimidin-4-yl]-3-[4-(trifluoromethoxy)phenyl] morpholine] was tested. Which IC50 did it give?
Its IC50 is less than 2 µM.

CS(=O)(=O)c1ccc(CNc2ncnc(N3CCOC[C@@H]3c3ccc(C(F)(F)F)cc3)c2F)cn1 [Example 293, 5-fluoro-N-[(6-methylsulfonyl-3-pyridyl)methyl]-6-[(3S)-3-[4-(trifluoromethyl)phenyl]morpholin-4-yl]pyrimidin-4-amine] was tested. Which IC50 did it give?
Its IC50 is less than 1 µM.

How did the IC50 turn out when O=C(O)c1ccc(CCNc2ncnc(N3CCCC3c3ccc(C(F)(F)F)cc3)c2F)cc1 (centres unmarked) [Example 120, 4-[2-[[5-fluoro-6-[2-[4-(trifluoromethyl)phenyl]pyrrolidin-1-yl]pyrimidin-4-yl]amino]ethyl]benzoic acid] was run?
Its IC50 is less than 10 µM.

CC(=O)N1CCOC([C@@H](CC(C)(C)C)Nc2ncnc(N3CCCC3c3ccc(C(F)(F)F)cc3)c2F)C1 (stereo partly drawn) [Example 71, 1-[2-[(1R)-1-[[5-fluoro-6-[2-[4-(trifluoromethyl)phenyl]pyrrolidin-1-yl]pyrimidin-4-yl]amino]-3,3-dimethyl-butyl]morpholin-4-yl]ethanone] was tested. Which IC50 did it give?
The IC50 was less than 10 µM.

Which IC50 does the source give for Cc1ccc(CNc2ncnc(N3CCCC3c3ccc(C)o3)c2F)cn1 (centres unmarked) [Example 150, 5-fluoro-6-[2-(5-methyl-2-furyl)pyrrolidin-1-yl]-N-[(6-methyl-3-pyridyl)methyl]pyrimidin-4-amine] here?
The IC50 was less than 10 µM.

Which IC50 does the source give for CC(CC1CCOCC1)Nc1ncnc(N2CCCC2c2ccc(C(F)(F)F)cc2)c1F (centres unmarked) [Example 41, 5-fluoro-N-(1-methyl-2-tetrahydropyran-4-yl-ethyl)-6-[2-[4-(trifluoromethyl)phenyl]pyrrolidin-1-yl]pyrimidin-4-amine] here?
The IC50 was less than 2 µM.

With CC1(C)CCC(CNc2ncnc(N3CCC[C@@H]3c3ccc(C(F)(F)F)cc3)c2F)CC1 [Example 166, N-[(4,4-dimethylcyclohexyl)methyl]-5-fluoro-6-[(2R)-2-[4-(trifluoromethyl)phenyl]pyrrolidin-1-yl]pyrimidin-4-amine] as the molecule, how does the IC50 read?
The IC50 was less than 0.5 µM.

For Cc1nnc(C2CCCN2c2ncnc(NCc3ccc(CC(N)=O)cc3)c2F)o1 (centres unmarked) [Example 315, 2-[4-[[[5-fluoro-6-[2-(5-methyl-1,3,4-oxadiazol-2-yl)pyrrolidin-1-yl]pyrimidin-4-yl]amino]methyl]phenyl]acetamide], which IC50 is on record?
Its IC50 is less than 10 µM.

With OCC1(CNc2ncnc(N3CCOC[C@@H]3c3ccc(C(F)(F)F)cc3)c2F)CC1 [Example 296, [1-[[[5-fluoro-6-[(3S)-3-[4-(trifluoromethyl)phenyl]morpholin-4-yl]pyrimidin-4-yl]amino]methyl]cyclopropyl] methanol] as the molecule, how does the IC50 read?
The IC50 was less than 10 µM.

Source: patent US10689383B2, “Optionally fused heterocyclyl-substituted derivatives of pyrimidine useful for the treatment of inflammatory, metabolic, oncologic and autoimmune diseases” (NUEVOLUTION A/S, priority 2014, dated 2020)
